Entries after “also recorded” stand apart in the source; their conditions may differ.
Columns and labels:
Leukemia, SR-91 = assay: NCI in vitro anti-cancer cell line screen (SRB); settings: Homo sapiens, 48 h
Experimental: (§1) The human tumor cell lines used in the cancer screen panel were grown in RPMI 1640 medium containing 5% FBS and 2 mM L-glutamine. The cells were inoculated into 96-well microtiter plates in 100 μl at plating density ranging from 5000 to 40,000 cell/well. […] Following drug addition, the plates were incubated for an additional 48 h. The assay was terminated by the addition of cold 10% TCA. The supernatant was discarded, and the plates were washed five times with water and air dried. Sulforhodamine B (SRB) solution (100 μl) at 0.4% (w/v) in 1% acetic acid was added to each well, and plates were incubated for 10 min at room temperature. After staining, unbound dye was removed by washing five times with 1% acetic acid and the plates were air dried. Bound stain was subsequently solubilized with 10 mM trizma base, and the absorbance was read on an automated plate reader at a wavelength of 515 nm.
(§2) A sulforhodamine B (SRB) end point was used to calculate the median growth inhibition (GI50). GI50 refers to the concentration at which the drug inhibits tumor cell growth by 50%.

[1] = test system: Breast Cancer, NCI/ADR-RES; assay: NCI in vitro anti-cancer cell line screen (SRB); settings: Homo sapiens, 48 h
Experimental: as §1, §2

ARPE-19 cells [2] = assay: qRT-PCR of cytokines in TNF-α treated cells; format: cell-based
Experimental: FIGS. 17A-17D depict the mRNA expressions of (A) IL-1β, (B) IL-8, (C) IκBα, and (D) GRP78 in response to 2 ng/ml TNF-α, 1 μM sterculic acid, 1 μM stearic acid, or the combinations of TNF-α with either sterculic acid or stearic acid. n=3. Error bars indicate the standard deviations.
Tumor necrosis factor-alpha (TNF-α, Roche Diagnostics, Indianapolis, Ind.) was diluted in PBS to make 10 μg/ml stock solution and stored at −20° C. In order to test the anti-inflammation effect of fatty acids against TNF-α, ARPE-19 cells were treated with 2 ng/ml of TNF-α for 24 hr in serum-free medium with or without 1 μM fatty acids. The mRNA expressions of cytokines were then examined using qRT-PCR. Each treatment was performed three times with quadruplicate measurements in each experiment, in 24-well plates.
The RNA was extracted using RNeasy Mini Kit (Qiagen, Valencia, Calif.). The reverse transcription was performed with reagents and kits from Invitrogen. Quantification of mRNA expression was performed using the Taqman gene expression assays and the following primers (VEGFa, Hs00173626_m1; IL-1β, Hs01555413_m1; IL-6, Hs00174131_m1; IL-8, Hs00174103_m1; IκBα, Hs00153283_m1; GRP78, Hs99999174_m1; CHOP, Hs01090850_m1; NOX2, Hs00166163_m1; NOX4, Hs01558199_m1; SCD, Hs00748952 s1; TNF-α, Hs00174128_m1; TGF-β1, Hs00998133_m1; GAPD, 4352934e). GAPD expression was used as an endogenous standard. All qRT-PCR experiments were measured in triplicates in an ABI 7500 Real-Time PCR Instrument (Applied Biosystems, Foster City, Calif.). The results of each treatment were normalized and presented in percentage relative to the vehicle-only control.

ARPE19 cells [3] = assay: 7-ketocholesterol-mediated cytotoxicity, 24-well CCK-8 viability and images; settings: 24 hr
ARPE-19 cells [4] = assay: Immunoblots of CHOP and GRP78; format: cell-based; settings: 1 μM + 8 μM 7KCh
Experimental: FIGS. 16A-16E depict the secreted protein levels of (A) VEGF, (B) IL-6, and (C) IL-8 were measure by ELISA 48 hr after treatment with 6 μM 7KCh, 1 μM sterculic acid, 1 μM stearic acid, or the combinations of 7KCh with either sterculic acid or stearic acid. Error bars indicate the standard deviations. *p<0.05 comparing to 7KCh, n=3. Two-tailed Student's t-test. The expressions of GRP78 and CHOP were shown by immunoblots (D) 24 hr or (E) 48 hr after treatment with 8 μM 7KCh, 1 μM sterculic acid, 1 μM stearic acid, or the combinations of 7KCh with either sterculic acid or stearic acid.
ARPE-19 cells were seeded in 24-well plates with 1×10^5 cells per well and allowed to recover for 16-24 hr. Once confluency reached approximately 90%, the effect of the fatty acids against 7KCh-mediated cell death was examined 24 hr after incubation in serum-free medium with 12 μM 7KCh. Fatty acids were tested at 0.1, 0.5, 1, 5 and 10 μM concentrations. The effects of the fatty acids against 7KCh-mediated inflammation and ER stress were examined by incubating cells in 1 μM fatty acids with either 8 μM 7KCh (24 hr for quantitative real-time PCR (qRT-PCR), 24 and 48 hr for immunoblot), or 6 μM 7KCh for 48 hr (for ELISA). Three individual experiments were performed for each treatment with quadruplicate measurements performed for each experiment in 24-well plates.
Lysis of ARPE-19 cells was performed using MPER buffer solution (Thermo Fisher Scientific) containing Complete Protease Inhibitor Cocktail (Roche Diagnostics). A total of 10 μg protein samples of the cell lysate were separated by SDS-PAGE on 10% Bis-Tris gels (Invitrogen). The gels were blotted on to nitrocellulose membranes (Invitrogen). The proteins were probed with primary antibodies for CHOP (1:1000 dilution), GRP78 (1:1000), or GAPDH (1:2000) at 4° C. overnight. The membranes were then further incubated with anti-rabbit IgG, HRP-linked antibodies (1:2000 dilution) at room temperature for 1 hr. […]

HUVEC [5] = assay: Cell migration (chemotaxis) assay, Boyden chamber, VEGF as chemoattractant; format: cell-based
Experimental: Cell migration was assessed using the 48-well Boyden chamber and 8 μm pore size collagen-coated (10 μg/ml rat tail collagen; Collaborative Laboratories) polycarbonate filters (Osmonics, Inc). The bottom chamber wells received 29 μl of DMEM medium alone (baseline) or medium containing chemoattractant (VEGF). The top chambers received 45 μl of HUVEC cell suspension (1×10^6 cells/ml) prepared in DMEM+1% BSA with or without sterculic acid. After 5 h incubation at 37° C., the membrane was rinsed in PBS, fixed and stained Diff-Quick solutions. The filter was placed on a glass slide with the migrated cells facing down and cell on top were removed using Kimwipe. The testing was performed in 4 replicates and five fields were counted from each well. The data was plotted as mean migrated cells±SD. IC50 was calculated from the plotted data.

HUVEC [6] = assay: Cord formation assay on Matrigel; format: cell-based; settings: data not shown
ARPE19 cells [7] = assay: Microelectronic cell sensor assay (RT-CES), 7KCh-induced cytotoxicity; settings: 1 μM fatty acid + 15 μM 7KCh, serum free media
Experimental: 4×10^4 cells were seeded onto wells of 16× microtiter plates. […] Cell viability was determined as a cell index (CI) calculated from the impedance of each well automatically by the RT-CES system once per hr until the end of the experiment. The data was normalized at the point immediately prior to compound treatment.
RT-CES® System is a cell-based assay system that monitors cellular events by measuring the electronic impedance of sensor electrodes integrated on the bottom of microtiter E-Plates. The presence of the cells will lead to an increase in the electrode impedance. The more cells attached to the sensor, the higher the impedance that could be monitored with RT-CES.
1) Cells were cultivated in the ACEA's 16X E-plate device containing microelectrodes at the bottom of each well to measure contact area and electrical properties of adherent cells. […]
4) Cell growth was monitored periodically (every 1 hr) for indicated durations via calculation of a “cell index” (reflect to the surface area covered by the cells) in each well. […]
6) The sensor devices were put into the incubator again and the cells were continuously monitored cellular status changes.
7) Cell viability was determined as a cell index (CI) calculated from the impedance of each well automatically by the RT-CES system once per hr until the end of the experiment. […]

CCCCCCCCC1=C(CCCCCCCC(=O)O)C1 [sterculic acid, 8-(2-octacyclopropen-1-yl)octanoic acid]
GI50 (Leukemia, SR-91): 10 µM
GI50 [1]: 10 µM
induction of GRP78 mRNA expression (ARPE-19 cells [2]; 2 ng/ml TNF-α alone or with 1 μM fatty acid, 24 hr, FIG. 17D): small measurable effect
antagonist effect to the cytokine inductions by TNF-α (ARPE-19 cells [2]; 1 μM fatty acid + 2 ng/ml TNF-α, 24 hr): did not show any antagonist effect
antagonist effect to TNF-α at 5 μM (ARPE-19 cells [2]; 5 μM, data not shown): failed to antagonize
protection of cell confluency and morphology (images) (ARPE19 cells [3]; 0.5 μM co-treatment with 12 μM 7KCh): maintain both cell confluency and cell morphology similar to the control; also recorded: apparent protection
protection of cell confluency and morphology (images) (ARPE19 cells [3]; 1 μM co-treatment with 12 μM 7KCh): maintain both cell confluency and cell morphology similar to the control; also recorded: apparent protection
co-treatment concentration that completely offsets the 7KCh cytotoxic effect (ARPE19 cells [3]; 12 μM 7KCh, CCK-8): 1 µM
concentration at which apparent protection is seen (ARPE19 cells [3]; 12 μM 7KCh, CCK-8): 0.5 µM
effect on 7KCh-induced CHOP and GRP78 protein expression (ARPE-19 cells [4]; 24 hr): completely inhibited
inhibitory effect on CHOP and GRP78 protein expression (ARPE-19 cells [4]; after 48 hr): seems to decrease
cell toxicity at migration-inhibiting concentration (HUVEC [5]): without showing significant cell toxicity
concentration that significantly inhibited VEGF-induced endothelial cell migration (HUVEC [5]; 5 h): Less than 100 μM
viability of HUVEC at concentrations required to inhibit cord formation (HUVEC [6]): did not affect their viability
protection from 7KCh induced cytotoxicity (cell index) (ARPE19 cells [7]): markedly protected

Reference: patent US8993626B2, “Methods of treatment using sterculic acid” (The United States of America, as represented by the …, priority 2010, dated 2015)
